In US20030033638A1, “Production of transgenic plants of the tagetes species” (priority 1999, published 2003):

Tested on: leaves of Tagetes patula plants of genotypes TAG 80 and TAG 81
Assay: Determination of phosphinothricin (PPT) toxicity on leaf explants
Format: cell-based
Conditions: leaf disks 10-60 mm^2 on MS medium with 2% sucrose, 3 mg/l BAP, 1 mg/l IAA; 2 weeks; both genotypes TAG 80 and TAG 81
Description: Leaves of Tagetes patula plants of genotypes TAG 80 and TAG 81 (Genbank, IPK Gatersleben) which were established in vitro were cut transversely to the central vein into disks 10-60 mm^2 in size and placed on MS medium supplemented with 2% sucrose, 3 mg/l benzylaminopurine (BAP), 1 mg/l indoleacetic acid (IAA) and different PPT concentrations. Incubation was for 2 weeks in a 16/8 hour light/dark photoperiod at approx. 50 μE/m^2s and at from 21 to 24° C. Then, the number of damaged explants was recorded with reference to the total number of tested explants (FIG. 2). In both Tagetes patula genotypes tested, concentrations starting at 1 mg/l PPT led to the complete destruction of all explants, which is why this concentration was used for the selection after cocultivation.

CP(=O)(O)CC[C@H](N)C(=O)O [PPT, phosphinothricin]
PPT concentration leading to the complete destruction of all explants: ≥ 1 mg/L
